Data reported in patent publication US8148375B2, “(Cyclopropylphenyl)phenyloxamides, method for the production thereof, and use of same as a medicament” (Sanofi-Aventis, priority 2007, dated 2012).

Target: T1, GPCR GPR40 (Homo sapiens, UniProt O14842)
T1 construct: expressed in transfected cells; host or cells: HEK293
Test: In-vitro FLIPR assay with recombinant cells which express the GPCR GPR40
Assay type: cell-based
Conditions: agonist-induced intracellular Ca2+ change in recombinant HEK293 cells expressing GPR40; relative to 10 μM linoleic acid = 100%
Description: In-vitro FLIPR Assay with Recombinant Cells which Express the GPCR GPR40
Function-testing assays were carried out by means of the FLIPR technique (“fluorescence imaging plate reader”, Molecular Devices Corp.). For this purpose, agonist-induced alterations in the intracellular concentration of Ca^2+ in recombinant HEK293 cells which express the GPCR GPR40 were determined.
For the investigations, cells were seeded in 96-well microtiter plates (60 000 cells/well) and left to grow overnight. The medium was removed and the cells were incubated in buffer which contained the fluorescent dye Fluo-4. After this loading with dye, the cells were washed, test substance was added and alterations in the intracellular Ca^2+ concentration were measured in the FLIPR instrument. Results have been depicted as percentage alteration relative to the control (0%: no test substance added; 100%: 10 μM reference agonist linoleic acid added) used to calculate dose/activity plots and EC50 values were determined.

T1 sequence (O14842 whole entry): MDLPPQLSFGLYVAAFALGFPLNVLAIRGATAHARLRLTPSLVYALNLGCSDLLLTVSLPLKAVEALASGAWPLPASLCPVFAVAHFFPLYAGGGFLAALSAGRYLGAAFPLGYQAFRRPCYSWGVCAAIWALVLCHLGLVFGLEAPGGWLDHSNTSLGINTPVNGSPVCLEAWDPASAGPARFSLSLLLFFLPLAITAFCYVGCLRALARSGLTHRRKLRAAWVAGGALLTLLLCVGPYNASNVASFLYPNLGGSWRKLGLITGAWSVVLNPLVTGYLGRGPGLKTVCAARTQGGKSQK

O=C(Nc1ccc(C2CC2C(=O)O)cc1)C(=O)Nc1cccc(Cl)c1Cl (centres unmarked) [Example 3]
EC50: 800 nM

O=C(Nc1ccc(C2CC2C(=O)O)cc1)C(=O)Nc1ccc(Cl)cc1C(F)(F)F (centres unmarked) [Example 2]
EC50: 700 nM
